Measured values from patent publication US10875871B2, “Photosensitizer” (Tampereen Korkeakoulusäätiö sr, priority 2016, dated 2020).
“Also recorded” adds a separate entry of the source.

Tests used:
[1] = Leeching test of dyed paper in PBS buffer; type: physicochemical
Experimental: Stability of the dye Pc4 against was tested with PBS buffer pH 7.2. The absorbance and emission of PBS buffer incubated with dye papers were measured for checking the leeching (FIGS. 9a and b). […] Absorbance and emission of PBS buffer from each vial was measured after 1 h to check the leeching of dyes from papers.

A. baylyi = assay: Antimicrobial inactivation under consumer LED lamp; type: cell-based, Acinetobacter baylyi; details: dyed filter paper, 1 h illumination from LED lamp
Experimental: The antimicrobial efficiency of the dye was confirmed by CFU method using microbes E. coli MG1655 (E. coli Genetic Resources at Yale) and A. baylyi ADP1 (ATCC 33305). […] […] UV-IR radiations were cut off using a combination of KG3 band pass filter (315-750 nm transmittance) and ? c-17 yellow filter (transmittance >485 nm). Similarly, light control samples were prepared by depositing microbial medium over dyed and un-dyed samples by covering microplate with aluminum foil for 1 h at room temperature. After 1 h of illumination or incubation, the microbes were extracted with LB medium (10 g/l tryptone, 5 g/l yeast extract, 5 g/l NaCl) (975 μl) and serial dilutions were made from each extract. The dilutions were then plated on LA agar plates and incubated at 30° C. overnight. The number of colonies grown on the agar plate was counted and CFUs per milliliter were calculated from it.
(§1) The spectrum of light emitted from the lamp prior to the experiments was measured. […] In addition, the power density of the lamp was also measured at different distances. […] The absorptance of phthalocyanine Pc4 and porphyrin ZnPf papers were calculated from reflectance and transmittance measurement of dyed papers using integrating sphere (IS) detector. The absorptance profiles were very similar to the absorbance measurement in solution. […]

E. coli = assay: Antimicrobial inactivation under consumer LED lamp; type: cell-based, Escherichia coli; details: dyed filter paper, 1 h illumination from LED lamp
Experimental: (§2) The antimicrobial efficiency of the dye was confirmed by CFU method using microbes E. coli MG1655 (E. coli Genetic Resources at Yale) and A. baylyi ADP1 (ATCC 33305). […] The microplate was illuminated in the solar simulator for 1 hour. UV-IR radiations were cut off using a combination of KG3 band pass filter (315-750 nm transmittance) and ? c-17 yellow filter (transmittance >485 nm). Similarly, light control samples were prepared by depositing microbial medium over dyed and un-dyed samples by covering microplate with aluminum foil for 1 h at room temperature. After 1 h of illumination or incubation, the microbes were extracted with LB medium (10 g/l tryptone, 5 g/l yeast extract, 5 g/l NaCl) (975 μl) and serial dilutions were made from each extract. The dilutions were then plated on LA agar plates and incubated at 30° C. overnight. The number of colonies grown on the agar plate was counted and CFUs per milliliter were calculated from it.
as §1

[2] = system: Escherichia coli (XL1-Blue) carrying plasmid pBAV1C-T5-lux; assay: Screening test with bioluminescent E. coli on dyed filter paper discs; type: cell-based; details: dyed filter paper discs on LA agar, 1 hour illumination, 18 mWcm−2
Experimental: (§3) The efficiency of dyes (Pc1, Pc2, Pc3, Pc4) was screened by conducting antimicrobial test with bioluminescent bacterial strains Escherichia coli (XL1-Blue, Stratagene, USA) and Acinetobacter baylyi ADP1 (DSM 24193) carrying plasmid pBAV1C-T5-lux (the plasmid is chloramphenicol resistance derivate of the pBAV1K-T5-lux plasmid (Addgene #55800). The filter papers (12.25 cm^2) were soaked in respective dye solution (0.9 mg dye in 200 μl solvent) and allowed to dry on it. After drying, three circular discs (0.5 cm diameter) were cut from each filter paper and pasted on the LA agar (15 g/l agar, 10 g/l tryptone, 5 g/l yeast extract, 5 g/l NaCl) gel plate in such a way that each row corresponds to each dye. A circular dark screen of 0.3 cm height with a square hole in the center was placed over the agar plate. The square hole was cut in such a way that, one column which includes all the four dyes will be under the dark area of the screen while the two remaining columns will be inside the square hole. Two filters [KG3 band pass filter (315-750 nm transmittance) and ? […] Luminescence arising from the setup was recorded (Xenogen IVIS 100) before the microbial deposition on the filter paper discs. […] Luminescence of the agar plate before and after illumination of 1 hour was measured and the efficient dye which produces less luminescence was screened out from the set.

[3] = system: Acinetobacter baylyi ADP1 carrying plasmid pBAV1C-T5-lux; assay: Screening test with bioluminescent Acinetobacter baylyi on dyed filter paper discs; type: cell-based; details: dyed filter paper discs on LA agar, 1 hour illumination, 18 mWcm−2
Experimental: as §3

E. coli MG1655 = assay: Colony forming unit (CFU) method, solar simulator; type: cell-based, Escherichia coli; details: for Colony counts after incubation / CFU/ml / Colony counts after incubation (Average) / Colony counts after incubation (Duplicate): E. Coli
Experimental: as §2

A. baylyi ADP1 = assay: Colony forming unit (CFU) method, solar simulator; type: cell-based, Acinetobacter baylyi; details: for Colony counts after incubation / CFU/ml / Colony counts after incubation (Average) / Colony counts after incubation (Duplicate): Acinetobacter baylyi
Experimental: as §2

[4] = Pc4 filter paper-Dark 1 h, dilution factor 2.50E−03, 0.1 ml plated
[5] = Pc4 filter paper-Dark 1 h, dilution factor 2.50E−04, 0.1 ml plated
[6] = Pc4 filter paper-Dark 1 h, dilution factor 2.50E−05, 0.1 ml plated
[7] = Pc4 filter paper-Dark 1 h, dilution factor 2.50E−06, 0.1 ml plated
[8] = illuminated Pc4 filter paper 1 h, dilution factor 2.50E−02, 0.1 ml plated
[9] = illuminated Pc4 filter paper 1 h, dilution factor 2.50E−03, 0.1 ml plated
[10] = illuminated Pc4 filter paper 1 h, dilution factor 2.50E−04, 0.1 ml plated
[11] = illuminated Pc4 filter paper 1 h, dilution factor 2.50E−05, 0.1 ml plated
[12] = illuminated Pc4 filter paper 1 h, dilution factor 2.50E−06, 0.1 ml plated
[13] = Pc4 filter paper-Dark 1 h, dilution factor 2.50E−07, 0.1 ml plated
[14] = illuminated Pc4 filter paper 1 h, dilution factor 2.50E−07, 0.1 ml plated

C[n+]1ccc(-c2c3nc(c(-c4cc[n+](C)cc4)c4ccc([nH]4)c(-c4cc[n+](C)cc4)c4nc(c(-c5cc[n+](C)cc5)c5ccc2[nH]5)C=C4)C=C3)cc1.I.I.I.I.[Zn+2] [ZnPf, Zn(II)tetrakis[methylpyridinium iodide]porphyrin, reference compound]
absorbance of PBS extract of dyed paper (leeching) ([1]; 28 mg dyed paper in 4 ml PBS pH 7.2, 1 hour, room temperature): strong absorption peak at 422 nm | emission of PBS extract of dyed paper (leeching) ([1]; PBS pH 7.2, excited at 422 nm, after 1 hour of incubation): intense emission peak | inactivation of microorganisms (A. baylyi): complete inactivation | inactivation of microorganisms (E. coli): complete inactivation

{4,4′,4″,4″-(29H,31H-phthalocyanine-1(4),8(11),15(18),22(25)-tetrayl-κ 4N29,N30,N31,N32)tetrakis [1-methylpyridiniumato(2-)]}zinc(4+) tetraiodide [Pc4]
efficiency of dye (luminescence after illumination) [2]: most efficient | absorbance of PBS extract of dyed paper (leeching) ([1]; PBS pH 7.2, 20 h of incubation at room temperature): did not show any peak corresponding to the dye | emission of PBS extract of dyed paper (leeching) ([1]; PBS pH 7.2, excitation at 694 nm): very faint emission peak of negligible intensity | stability against leeching from paper ([1]; dye impregnated on filter paper, PBS buffer pH 7.2): exceptionally high stability against leeching; also recorded: does not release back to solution | inactivation of microorganisms (A. baylyi): complete inactivation | efficiency of dye (luminescence after illumination) [3]: most efficient | Colony counts after incubation (E. coli MG1655; Pc4 filter paper-Dark 1 h, dilution factor 2.50E−02, 0.1 ml plated): Too many to count | Colony counts after incubation (E. coli MG1655; [4]): Too many to count | Colony counts after incubation (E. coli MG1655; [5]): Too many to count | Colony counts after incubation (E. coli MG1655; [6]): Too many to count | CFU/ml (E. coli MG1655; [7]): 1.51E+09 CFU/ml | Colony counts after incubation (E. coli MG1655; [7]): 327 | Colony counts after incubation (Average) (E. coli MG1655; [7]): 378 | Colony counts after incubation (Duplicate) (E. coli MG1655; [7]): 429 | CFU/ml (E. coli MG1655; [8]): 0.00E+00 CFU/ml | Colony counts after incubation (E. coli MG1655; [8]): 0 | Colony counts after incubation (Average) (E. coli MG1655; [8]): 0 | Colony counts after incubation (Duplicate) (E. coli MG1655; [8]): 0 | CFU/ml (E. coli MG1655; [9]): 0.00E+00 CFU/ml | Colony counts after incubation (E. coli MG1655; [9]): 0 | Colony counts after incubation (Average) (E. coli MG1655; [9]): 0 | Colony counts after incubation (Duplicate) (E. coli MG1655; [9]): 0 | CFU/ml (E. coli MG1655; [10]): 0.00E+00 CFU/ml | Colony counts after incubation (E. coli MG1655; [10]): 0 | Colony counts after incubation (Average) (E. coli MG1655; [10]): 0 | Colony counts after incubation (Duplicate) (E. coli MG1655; [10]): 0 | CFU/ml (E. coli MG1655; [11]): 0.00E+00 CFU/ml | Colony counts after incubation (E. coli MG1655; [11]): 0 | Colony counts after incubation (Average) (E. coli MG1655; [11]): 0 | Colony counts after incubation (Duplicate) (E. coli MG1655; [11]): 0 | CFU/ml (E. coli MG1655; [12]): 0.00E+00 CFU/ml | Colony counts after incubation (E. coli MG1655; [12]): 0 | Colony counts after incubation (Average) (E. coli MG1655; [12]): 0 | Colony counts after incubation (Duplicate) (E. coli MG1655; [12]): 0 | microbial growth on plates (E. coli MG1655; E. coli, illuminated Pc4 filter paper, 1 hour solar simulator): No microbial growth | inactivation of microorganisms (E. coli): complete inactivation | microbial growth on plates (A. baylyi ADP1; A. baylyi, illuminated Pc4 filter paper, 1 hour solar simulator): No microbial growth | Colony counts after incubation (A. baylyi ADP1; [4]): Too many to count | Colony counts after incubation (A. baylyi ADP1; [5]): Too many to count | CFU/ml (A. baylyi ADP1; [6]): 7.06E+07 CFU/ml | Colony counts after incubation (A. baylyi ADP1; [6]): 175 | Colony counts after incubation (Average) (A. baylyi ADP1; [6]): 176.5 | Colony counts after incubation (Duplicate) (A. baylyi ADP1; [6]): 178 | CFU/ml (A. baylyi ADP1; [7]): 5.20E+07 CFU/ml | Colony counts after incubation (A. baylyi ADP1; [7]): 22 | Colony counts after incubation (Average) (A. baylyi ADP1; [7]): 13 | Colony counts after incubation (Duplicate) (A. baylyi ADP1; [7]): 4 | CFU/ml (A. baylyi ADP1; [13]): 1.40E+08 CFU/ml | Colony counts after incubation (A. baylyi ADP1; [13]): 6 | Colony counts after incubation (Average) (A. baylyi ADP1; [13]): 3.5 | Colony counts after incubation (Duplicate) (A. baylyi ADP1; [13]): 1 | CFU/ml (A. baylyi ADP1; [9]): 0.00E+00 CFU/ml | Colony counts after incubation (A. baylyi ADP1; [9]): 0 | Colony counts after incubation (Average) (A. baylyi ADP1; [9]): 0 | Colony counts after incubation (Duplicate) (A. baylyi ADP1; [9]): 0 | CFU/ml (A. baylyi ADP1; [10]): 0.00E+00 CFU/ml | Colony counts after incubation (A. baylyi ADP1; [10]): 0 | Colony counts after incubation (Average) (A. baylyi ADP1; [10]): 0 | Colony counts after incubation (Duplicate) (A. baylyi ADP1; [10]): 0 | CFU/ml (A. baylyi ADP1; [11]): 0.00E+00 CFU/ml | Colony counts after incubation (A. baylyi ADP1; [11]): 0 | Colony counts after incubation (Average) (A. baylyi ADP1; [11]): 0 | Colony counts after incubation (Duplicate) (A. baylyi ADP1; [11]): 0 | CFU/ml (A. baylyi ADP1; [12]): 0.00E+00 CFU/ml | Colony counts after incubation (A. baylyi ADP1; [12]): 0 | Colony counts after incubation (Average) (A. baylyi ADP1; [12]): 0 | Colony counts after incubation (Duplicate) (A. baylyi ADP1; [12]): 0 | CFU/ml (A. baylyi ADP1; [14]): 0.00E+00 CFU/ml | Colony counts after incubation (A. baylyi ADP1; [14]): 0 | Colony counts after incubation (Average) (A. baylyi ADP1; [14]): 0 | Colony counts after incubation (Duplicate) (A. baylyi ADP1; [14]): 0
